Laboratory results from ChEMBL document CHEMBL5370539, “Oxazole-4-carboxamide/butylated hydroxytoluene hybrids with GSK-3β inhibitory and neuroprotective activities against Alzheimer's disease” (Eur J Med Chem, 2023).
Calls of active or inactive are those of the source. The rule behind the calls is not given here.

Experiments:
[1] = target: T1, Glycogen synthase kinase-3 beta (Homo sapiens, UniProt P49841); test: Inhibition of recombinant human GSK-3beta using YRRAAVPPSPSLSRHSSPHQ(pS)EDEE as substrate preincubated for 15 mins followed by substrate addition and measured after 60 mins by Kinase-Glo luminescent kinase assay
Target sequence in this assay (P49841 whole entry): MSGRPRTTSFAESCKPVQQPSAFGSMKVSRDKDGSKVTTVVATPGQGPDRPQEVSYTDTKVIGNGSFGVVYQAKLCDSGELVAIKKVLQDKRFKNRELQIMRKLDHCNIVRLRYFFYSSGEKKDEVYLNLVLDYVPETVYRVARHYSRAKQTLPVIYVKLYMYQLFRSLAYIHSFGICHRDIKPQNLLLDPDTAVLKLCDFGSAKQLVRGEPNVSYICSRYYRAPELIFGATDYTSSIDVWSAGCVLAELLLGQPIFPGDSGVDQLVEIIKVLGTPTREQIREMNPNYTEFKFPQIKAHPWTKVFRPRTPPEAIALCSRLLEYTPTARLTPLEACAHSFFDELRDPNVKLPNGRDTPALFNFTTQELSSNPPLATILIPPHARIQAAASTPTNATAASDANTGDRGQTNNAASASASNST

PC-12 [2] = test: Cytotoxicity against rat PC12 cells assessed as cell viability at 6.25 to 100 uM incubated for 24 hrs by MTT assay; format: toxicity, cell-based; settings: pc-12, 24 h, dose 6.25-100 µM
L02 = test: Cytotoxicity against human L02 cells assessed as cell viability at 6.25 to 100 uM incubated for 24 hrs by MTT assay; format: toxicity, cell-based; settings: l02, 24 h, dose 6.25-100 µM
[3] = target: T1, Glycogen synthase kinase-3 beta; test: Inhibition of human GSK-3beta overexpressed in human HEK293T cells assessed as reduction in GSK-3beta expression level at 0.625 to 10 uM incubated for 24 hrs by Western blot analysis; format: cell-based; settings: dose 0.625-10 µM
Target sequence in this assay (P49841 whole entry, looked up): as the sequence (P49841 whole entry) above

[4] = target: T1, Glycogen synthase kinase-3 beta; test: Inhibition of human GSK-3beta overexpressed in human HEK293T cells assessed as decrease in Tau phosphorylation at s396 at 0.625 to 10 uM incubated for 24 hrs by Western blot analysis; format: cell-based; settings: dose 0.625-10 µM
Target sequence in this assay (P49841 whole entry, looked up): as the sequence (P49841 whole entry) above

PC-12 [5] = test: Neuroprotective activity against rat PC12 cells assessed as decrease in H2O2-induced mitochondrial membrane potential level at 5 uM preincubated for 12 hrs followed by replacement with fresh media and H2O2 stimulation for 12 hrs by JC-1 dye based flow cytometry (Rvb= 95.3%); format: functional; design: scale not given: the % may be the effect or the level left
PC-12 [6] = test: Neuroprotective activity against rat PC12 cells assessed as decrease in H2O2-induced mitochondrial membrane potential level at 10 uM preincubated for 12 hrs followed by replacement with fresh media and H2O2 stimulation for 12 hrs by JC-1 dye based flow cytometry (Rvb=95.3%); format: functional; design: scale not given: the % may be the effect or the level left
PC-12 [7] = test: Neuroprotective activity against rat PC12 cells assessed as decrease in H2O2-induced intracellular Ca2+ level at 5 uM preincubated for 12 hrs followed by replacement with fresh media and H2O2 stimulation for 12 hrs by Fluo-3 AM based flow cytometry relative to control; format: functional; design: scale not given: the % may be the effect or the level left
PC-12 [8] = test: Neuroprotective activity against rat PC12 cells assessed as decrease in H2O2-induced intracellular Ca2+ level at 10 uM preincubated for 12 hrs followed by replacement with fresh media and H2O2 stimulation for 12 hrs by Fluo-3 AM based flow cytometry relative to control; format: functional; design: scale not given: the % may be the effect or the level left
PC-12 [9] = test: Anti-apoptotic activity against H2O2-induced apoptosis in rat PC12 cells assessed as dead cells at 2.5 uM preincubated for 12 hrs followed by replacement with fresh media and H2O2 stimulation for 12 hrs by Annexin-V/7-AAD staining based flow cytometry (Rvb=4.1%); format: functional
PC-12 [10] = test: Anti-apoptotic activity against H2O2-induced apoptosis in rat PC12 cells assessed as dead cells at 10 uM preincubated for 12 hrs followed by replacement with fresh media and H2O2 stimulation for 12 hrs by Annexin-V/7-AAD staining based flow cytometry (Rvb=4.1%); format: functional
PC-12 [11] = test: Anti-apoptotic activity against H2O2-induced apoptosis in rat PC12 cells assessed as late apoptotic cells at 5 uM preincubated for 12 hrs followed by replacement with fresh media and H2O2 stimulation for 12 hrs by Annexin-V/7-AAD staining based flow cytometry (Rvb=2.2 %); format: functional
PC-12 [12] = test: Anti-apoptotic activity against H2O2-induced apoptosis in rat PC12 cells assessed as late apoptotic cells at 10 uM preincubated for 12 hrs followed by replacement with fresh media and H2O2 stimulation for 12 hrs by Annexin-V/7-AAD staining based flow cytometry (Rvb=2.2 %); format: functional
PC-12 [13] = test: Anti-apoptotic activity against H2O2-induced apoptosis in rat PC12 cells assessed as early apoptotic cells at 2.5 uM preincubated for 12 hrs followed by replacement with fresh media and H2O2 stimulation for 12 hrs by Annexin-V/7-AAD staining based flow cytometry (Rvb=0.8%); format: functional
PC-12 [14] = test: Anti-apoptotic activity against H2O2-induced apoptosis in rat PC12 cells assessed as early apoptotic cells at 5 uM preincubated for 12 hrs followed by replacement with fresh media and H2O2 stimulation for 12 hrs by Annexin-V/7-AAD staining based flow cytometry (Rvb=0.8%); format: functional
PC-12 [15] = test: Anti-apoptotic activity against H2O2-induced apoptosis in rat PC12 cells assessed as living cells at 2.5 uM preincubated for 12 hrs followed by replacement with fresh media and H2O2 stimulation for 12 hrs by Annexin-V/7-AAD staining based flow cytometry (Rvb=92.9%); format: functional
PC-12 [16] = test: Anti-apoptotic activity against H2O2-induced apoptosis in rat PC12 cells assessed as living cells at 5 uM preincubated for 12 hrs followed by replacement with fresh media and H2O2 stimulation for 12 hrs by Annexin-V/7-AAD staining based flow cytometry (Rvb=92.9%); format: functional
PC-12 [17] = test: Anti-apoptotic activity against H2O2-induced apoptosis in rat PC12 cells assessed as living cells at 10 uM preincubated for 12 hrs followed by replacement with fresh media and H2O2 stimulation for 12 hrs by Annexin-V/7-AAD staining based flow cytometry (Rvb=92.9%); format: functional
PC-12 [18] = test: Neuroprotective activity against H2O2-induced cytotoxicity in rat PC12 cells assessed as increase in cell viability at 10 uM pretreated with Brusatol for 1hrs and preincubated for 12 hrs followed by replacement with fresh media and H2O2 stimulation for 12 hrs by MTT assay; format: functional, cell-based
PC12 [19] = test: Activation of Nrf2-ARE pathway in rat PC-12 cells assessed as increase in TrxR1 expression level at 2.5 to 10 uM incubated for 6 hrs by Western blot analysis; format: cell-based; settings: filed as activator, dose 2.5-10 µM
PC12 [20] = test: Activation of Nrf2-ARE pathway in rat PC-12 cells assessed as increase in HO-1 expression level at 2.5 to 10 uM incubated for 6 hrs by Western blot analysis; format: cell-based; settings: filed as activator, dose 2.5-10 µM
PC12 [21] = test: Activation of Nrf2-ARE pathway in rat PC-12 cells assessed as increase in GCLM expression level at 2.5 to 10 uM incubated for 24 hrs by Western blot analysis; format: cell-based; settings: filed as activator, dose 2.5-10 µM
PC12 [22] = test: Activation of Nrf2-ARE pathway in rat PC-12 cells assessed as increase in Nrf2 expression level in cytoplasm at 10 uM incubated for 3 hrs by Western blot analysis; format: cell-based; settings: filed as activator
PC12 [23] = test: Activation of Nrf2-ARE pathway in rat PC-12 cells assessed as increase in Nrf2 expression level in nucleus at 10 uM incubated for 3 hrs by Western blot analysis; format: cell-based; settings: filed as activator
[24] = Toxicity in okadaic acid-induced cognitive impairment ICR mouse model assessed as body weight change at 0.08 to 0.24 mg/kg, iv twice at 3days interval before and after okadaic acid stimulation measured upto 14 days; format: organism-based; settings: in vivo, 336 h, dose 0.08-0.24 mg/kg, time < 14 day
Mus musculus [25] = test: Antialzheimer activity in okadaic acid-induced cognitive impairment ICR mouse model assessed as reduction in escape time at 0.08 to 0.24 mg/kg, iv twice at 3days interval before and after okadaic acid stimulation measured upto 14 days by Morris water maze test relative to control; format: functional, organism-based; settings: dose 0.08-0.24 mg/kg, time <= 14.0 day
Mus musculus [26] = test: Antialzheimer activity in okadaic acid-induced cognitive impairment ICR mouse model assessed as path tracing at 0.08 to 0.24 mg/kg, iv twice at 3days interval before and after okadaic acid stimulation measured upto 14 days by Morris water maze test relative to control; format: functional, organism-based; settings: dose 0.08-0.24 mg/kg, time <= 14.0 day

For `COc1ccc(-c2ocnc2C(=O)NCCCc2ccc(NC(=O)/C=C/c3cc(C(C)(C)C)c(O)c(C(C)(C)C)c3)cc2)cc1Cl`, the IC50 [1] was 0.25 nM, the Activity (PC-12 [2]) was “Non-Toxic” and the Activity (L02) was “Non-Toxic”. The inhibition [3] was “Dose-Dependent Effect”, the inhibition [4] was “Dose-Dependent Effect” and the Activity (PC-12 [5]) was 72.6%. For the same molecule, the Activity (PC-12 [6]) was 81.3%, the Activity (PC-12 [7]) was 28.4% and the Activity (PC-12 [8]) was 31.1%. It also gave an Activity (PC-12 [9]) of 1.3%, an Activity (PC-12 [10]) of 1.3% and an Activity (PC-12 [11]) of 12.9%. The Activity (PC-12 [12]) was 6%, the Activity (PC-12 [13]) was 5.5% and the Activity (PC-12 [14]) was 1.5%. It also gave an Activity (PC-12 [15]) of 76.8%, an Activity (PC-12 [16]) of 93.1% and an Activity (PC-12 [17]) of 90.7%. For the same molecule, the Activity (PC-12 [18]) was “inactive”, the Activity (PC12 [19]) was “Dose-Dependent Effect” and the Activity (PC12 [20]) was “Dose-Dependent Effect”. For the same molecule, the Activity (PC12 [21]) was “Dose-Dependent Effect”, the Activity (PC12 [22]) was “Active” and the Activity (PC12 [23]) was “Active”. For the same molecule, the Activity [24] was “Non-Toxic”, the Activity (Mus musculus [25]) was “Dose-Dependent Effect” and the Activity (Mus musculus [26]) was “Active”.
